Data: ChEMBL document CHEMBL1136921, “Benzylguanidines and other galegine analogues inducing weight loss in mice” (J Med Chem, 2009)
Activity calls are given as the source filed them. The rule behind the calls is not given here.

What was measured:
[1] = system: Mus musculus; experiment: Hypoglycemic activity in lean normal BALB/c mouse assessed as blood glucose level at 0.5 mmol/kg/day administered through diet for 7 days relative to time-matched control; format: functional
[2] = system: Mus musculus; experiment: Antiobesity activity in lean normal BALB/c mouse assessed as change in average daily food intake at 0.5 mmol/kg/day administered through diet for 7 days relative to time-matched control; format: functional
[3] = system: Mus musculus; experiment: Antiobesity activity in lean normal BALB/c mouse assessed as change in average daily weight at 0.5 mmol/kg/day administered through diet for 7 days relative to time-matched control; format: functional
[4] = system: Mus musculus; experiment: Toxicity in lean normal BALB/c mouse assessed as overt signs of behavioural changes at equimolar dose of 0.5 mmol/kg galegine administered daily through diet for 7 days; format: organism-based; conditions: in vivo, po, 168 h
[5] = system: Mus musculus; experiment: Antiobesity activity in ob/ob mouse model assessed as change in average daily weight at 0.26 mmol/kg/day administered through diet for 28 days relative to time-matched control; format: functional
[6] = system: Mus musculus; experiment: Antiobesity activity in ob/ob mouse model assessed as change in average daily food intake at 0.26 mmol/kg/day administered through diet for 28 days relative to time-matched control; format: functional
[7] = system: Mus musculus; experiment: Hypoglycemic activity in ob/ob mouse model assessed as blood glucose level at 0.26 mmol/kg/day administered through diet for 28 days relative to time-matched control; format: functional
[8] = system: Mus musculus; experiment: Antiobesity activity in high fat diet-induced obese BALB/c mouse model assessed as change in average daily body weight at 0.38 mmol/kg/day administered through diet for 28 days relative to time-matched control; format: functional
[9] = system: Mus musculus; experiment: Antiobesity activity in high fat diet-induced obese BALB/c mouse model assessed as change in average daily food intake at 0.38 mmol/kg/day administered through diet for 28 days relative to time-matched control; format: functional
[10] = system: Mus musculus; experiment: Hypoglycemic activity in high fat diet-induced obese BALB/c mouse model assessed as blood glucose level at 0.38 mmol/kg/day administered through diet for 28 days relative to time-matched control; format: functional
[11] = system: Mus musculus; experiment: Antiobesity activity in lean normal BALB/c mouse assessed as change in average daily food intake at 0.57 mmol/kg/day administered through diet for 7 days relative to time-matched control; format: functional
[12] = system: Mus musculus; experiment: Hypoglycemic activity in lean normal BALB/c mouse assessed as blood glucose level at 0.57 mmol/kg/day administered through diet for 7 days relative to time-matched control; format: functional
[13] = system: Mus musculus; experiment: Antiobesity activity in lean normal BALB/c mouse assessed as change in average daily weight at 0.57 mmol/kg/day administered through diet for 7 days relative to time-matched control; format: functional
[14] = system: Mus musculus; experiment: Hypoglycemic activity in lean normal BALB/c mouse assessed as blood glucose level at 0.72 mmol/kg/day administered through diet for 7 days relative to time-matched control; format: functional
[15] = system: Mus musculus; experiment: Antiobesity activity in lean normal BALB/c mouse assessed as change in average daily food intake at 0.72 mmol/kg/day administered through diet for 7 days relative to time-matched control; format: functional
[16] = system: Mus musculus; experiment: Antiobesity activity in lean normal BALB/c mouse assessed as change in average daily weight at 0.72 mmol/kg/day administered through diet for 7 days relative to time-matched control; format: functional
[17] = Metabolic stability in ob/ob mouse liver microsomes assessed as oxidative hydroxylation at 50 uM after 45 mins by HPLC-MS analysis; format: ADME, Microsome; conditions: 0.75 h
[18] = system: Mus musculus; experiment: Antiobesity activity in lean normal BALB/c mouse assessed as change in average daily food intake at 0.52 mmol/kg/day administered through diet for 7 days relative to time-matched control; format: functional
[19] = system: Mus musculus; experiment: Hypoglycemic activity in lean normal BALB/c mouse assessed as blood glucose level at 0.52 mmol/kg/day administered through diet for 7 days relative to time-matched control; format: functional
[20] = system: Mus musculus; experiment: Antiobesity activity in lean normal BALB/c mouse assessed as change in average daily weight at 0.52 mmol/kg/day administered through diet for 7 days relative to time-matched control; format: functional
[21] = system: Mus musculus; experiment: Antiobesity activity in lean normal BALB/c mouse assessed as change in average daily food intake at 0.70 mmol/kg/day administered through diet for 7 days relative to time-matched control; format: functional
[22] = system: Mus musculus; experiment: Hypoglycemic activity in lean normal BALB/c mouse assessed as blood glucose level at 0.70 mmol/kg/day administered through diet for 7 days relative to time-matched control; format: functional
[23] = system: Mus musculus; experiment: Antiobesity activity in lean normal BALB/c mouse assessed as change in average daily weight at 0.70 mmol/kg/day administered through diet for 7 days relative to time-matched control; format: functional
[24] = system: Mus musculus; experiment: Antiobesity activity in lean normal BALB/c mouse assessed as change in average daily food intake at 0.62 mmol/kg/day administered through diet for 7 days relative to time-matched control; format: functional
[25] = system: Mus musculus; experiment: Antiobesity activity in lean normal BALB/c mouse assessed as change in average daily weight at 0.62 mmol/kg/day administered through diet for 7 days relative to time-matched control; format: functional

CC(C)=CCN=C(N)N [GALEGINE] gave an Activity [1] of 53%, an Activity [2] of -36.3% and an Activity [3] of -16.6%. For the same molecule, the Activity [4] was “Non-toxic”, the Activity [5] was -7.3% and the Activity [6] was -29.2%. For the same molecule, the Activity [7] was 91%, the Activity [8] was -9% and the Activity [9] was -23.6%. It also gave an Activity [10] of 77%.

N=C(N)NCc1ccccc1Cl showed an Activity [11] of -21.1%, an Activity [12] of 82% and an Activity [13] of -10.7%. For the same molecule, the Activity [4] was “Non-toxic”.

For N=C(N)NCc1cccs1, the Activity [14] was 88%, the Activity [15] was 5.6% and the Activity [16] was -2.3%. For the same molecule, the Activity [4] was “Non-toxic” and the Activity [17] was “Stable”.

Molecule N=C(N)NCc1ccc(Br)cc1 has an Activity [18] of -36.7%, an Activity [19] of 51% and an Activity [20] of -23.3%. The Activity [4] was “Non-toxic”.

For N=C(N)NCc1ccc(C(F)(F)F)cc1, the Activity [21] was -12.7%, the Activity [22] was 75% and the Activity [23] was -10.6%. For the same molecule, the Activity [4] was “Non-toxic”.

With [H]/N=C(/N)N/C(=N/[H])NCCc1ccccc1 [PHENFORMIN] the Activity [24] was -3.4%, the Activity [25] was -0.14% and the Activity [4] was “Non-toxic”. For the same molecule, the Activity [17] was “Unstable”.

For CC(C)=CCNC=N, the Activity [1] was “inactive”, the Activity [2] was “inactive” and the Activity [3] was “inactive”.
